Results from ChEMBL document CHEMBL3879915, “Methods of inhibiting PRMT5” (2014).

These compounds were tested against PRMT5/MEP50 complex (Homo sapiens, UniProt O14744) (assay: Inhibition of recombinant human fetal brain FLAG-tagged PRMT5/full length human testis 6His-tagged MEP50 expressed in baculovirus infected insect Sf9 cells using human histone H4 (1 to 15 residues) as substrate preincubated for 30 mins followed by [3H]-SAM addition).
Sequence of PRMT5/MEP50 complex (O14744 whole entry, the tested form may be a part): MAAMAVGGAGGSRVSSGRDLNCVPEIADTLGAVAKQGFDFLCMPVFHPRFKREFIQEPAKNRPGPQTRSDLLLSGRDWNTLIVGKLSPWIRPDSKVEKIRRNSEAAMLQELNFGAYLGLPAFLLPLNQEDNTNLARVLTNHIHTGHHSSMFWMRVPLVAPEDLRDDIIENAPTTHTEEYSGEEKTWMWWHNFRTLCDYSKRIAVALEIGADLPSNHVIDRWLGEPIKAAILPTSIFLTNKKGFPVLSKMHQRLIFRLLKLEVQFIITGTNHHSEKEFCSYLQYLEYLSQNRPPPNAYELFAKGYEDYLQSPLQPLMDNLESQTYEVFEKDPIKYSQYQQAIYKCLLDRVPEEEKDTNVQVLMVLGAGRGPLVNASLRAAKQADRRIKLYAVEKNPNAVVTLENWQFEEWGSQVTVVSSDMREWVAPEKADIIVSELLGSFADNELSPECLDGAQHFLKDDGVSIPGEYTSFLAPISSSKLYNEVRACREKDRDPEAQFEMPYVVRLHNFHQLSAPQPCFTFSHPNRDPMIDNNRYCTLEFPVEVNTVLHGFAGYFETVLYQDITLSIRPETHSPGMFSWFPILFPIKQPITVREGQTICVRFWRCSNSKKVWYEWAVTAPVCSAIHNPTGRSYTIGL
Sequence of PRMT5/MEP50 complex (Q9BQA1 whole entry, further chain, the tested form may be a part): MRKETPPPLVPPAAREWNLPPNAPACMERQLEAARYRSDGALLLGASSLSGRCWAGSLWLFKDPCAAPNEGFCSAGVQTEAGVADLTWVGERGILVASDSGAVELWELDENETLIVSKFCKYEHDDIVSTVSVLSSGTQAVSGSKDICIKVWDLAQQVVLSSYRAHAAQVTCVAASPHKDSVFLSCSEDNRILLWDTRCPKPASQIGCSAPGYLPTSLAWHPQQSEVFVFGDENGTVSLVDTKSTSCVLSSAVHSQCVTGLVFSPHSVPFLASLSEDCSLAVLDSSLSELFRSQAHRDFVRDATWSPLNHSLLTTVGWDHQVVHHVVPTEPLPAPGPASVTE

| SMILES | IC50 |
| --- | --- |
| OC(COCc1ccc(Cl)cc1)CN1CCc2ccccc2C1 (stereo unspecified) | 1 to 10 µM |
| CN(C(=O)c1cncn1C)c1cccc(OCC(O)CN2CCc3ccccc3C2)c1 (stereo unspecified) | 1 to 10 µM |
| OC(COc1cccc(-c2ccncc2F)c1)CN1CCc2ccccc2C1 (stereo unspecified) | 1 to 10 µM |
| COc1ncc(-c2cccc(OCC(O)CN3CCc4ccccc4C3)c2)cn1 (stereo unspecified) | 1 to 10 µM |
| OC(COC1CCCC1)CN1CCc2ccccc2C1 (stereo unspecified) | 1 to 10 µM |
| COc1cccc2c1CN(CC(O)COc1cccc(-c3ccc4ncn(C)c4c3)c1)CC2 (stereo unspecified) | 1 to 10 µM |
| O=C(COCc1cccnc1)NCC(O)CN1CCc2ccccc2C1 (stereo unspecified) | 1 to 10 µM |
| CC1CN(CC(O)COc2cccc(-c3ccc4ncn(C)c4c3)c2)Cc2ccccc21 (stereo unspecified) | 1 to 10 µM |
| Cn1cc2cc(-c3cccc(OCC(O)CN4CCc5ccccc5C4)c3)ccc2n1 (stereo unspecified) | 1 to 10 µM |
| CC1Cc2ccccc2CN1CC(O)COc1cccc(-c2ccc3ncn(C)c3c2)c1 (stereo unspecified) | 1 to 10 µM |
| COc1cc2c(cc1OC)CN(CC(O)COc1cccc(-c3ccc4ncn(C)c4c3)c1)CC2 (stereo unspecified) | > 40 µM |
| Cn1cncc1C(=O)Nc1cccc(OC[C@@H](O)CN2CCc3ccccc3C2)c1 | 1 to 10 µM |
| OC(COc1cccc(-c2ccccn2)c1)CN1CCc2ccccc2C1 (stereo unspecified) | 1 to 10 µM |
| O=C(Nc1ccccn1)c1cccc(OCC(O)CN2CCc3ccccc3C2)c1 (stereo unspecified) | 0.101 to 1 µM |
| OC(COc1cccc(N2CCc3[nH]nc(-c4ccccc4)c3C2)c1)CN1CCc2ccccc2C1 (stereo unspecified) | 1 to 10 µM |
| OC(CNc1cc(-c2ccc3ncn(C4CNC4)c3c2)ccn1)CN1CCc2ccccc2C1 (stereo unspecified) | < 0.1 µM |
| Cn1cnc2ccc(-c3cccc(OCC(O)CN4CCc5ccc(Cl)cc5C4)c3)cc21 (stereo unspecified) | 1 to 10 µM |
| CN(C(=O)c1cn(C)cn1)c1cccc(OCC(O)CN2CCc3ccccc3C2)c1 (stereo unspecified) | 1 to 10 µM |
| CNC(=O)Cn1ccc2cnc(-c3cccc(OCC(O)CN4CCc5ccccc5C4)c3)nc21 (stereo unspecified) | 1 to 10 µM |
| O=C(COc1cccc2cccnc12)NC[C@@H](O)CN1Cc2ccccc2C1 | 1 to 10 µM |
| COc1ccc2c(c1)CN(CC(O)COc1cccc(-c3ccc4ncn(C)c4c3)c1)CC2 (stereo unspecified) | 10 to 40 µM |
| OC(COc1cccc(-c2cnccn2)c1)CN1CCc2ccccc2C1 (stereo unspecified) | 1 to 10 µM |
| O=C(Nc1cccc(OCC(O)CN2CCc3ccccc3C2)c1)c1cnco1 (stereo unspecified) | 1 to 10 µM |
| Cn1cnc2nc(-c3cccc(OCC(O)CN4CCc5ccccc5C4)c3)ncc21 (stereo unspecified) | 1 to 10 µM |
| OC(COCc1ccc(Cl)cc1Cl)CN1CCc2ccccc2C1 (stereo unspecified) | 1 to 10 µM |
| CN1CC(n2cnc3ccc(-c4ccnc(NCC(O)CN5CCc6ccccc6C5)c4)cc32)C1 (stereo unspecified) | < 0.1 µM |

| SMILES | IC50 |
| --- | --- |
| OC(COCc1ccccn1)CN1CCc2ccccc2C1 (stereo unspecified) | 10 to 40 µM |
| Cn1cnc2ccc(-c3cccc(OCC(O)CN4CCc5ccccc5C4CC(N)=O)c3)cc21 (stereo unspecified) | > 40 µM |
| O=C(Nc1cccnc1)c1cccc(OCC(O)CN2CCc3ccccc3C2)c1 (stereo unspecified) | 1 to 10 µM |
| COc1c(COCC(O)CN2CCc3ccccc3C2)ccc2ccccc12 (stereo unspecified) | 1 to 10 µM |
| CN(C(=O)c1cocn1)c1cccc(OCC(O)CN2CCc3ccccc3C2)c1 (stereo unspecified) | 10 to 40 µM |
| CC(C)(C)OC(=O)N1CCC(OCC(O)CN2CCc3ccccc3C2)C1 (stereo unspecified) | 1 to 10 µM |
| CCOC(=O)CC1c2ccccc2CCN1CC(O)COc1cccc(-c2ccc3ncn(C)c3c2)c1 (stereo unspecified) | 1 to 10 µM |
| CN1CCCc2c(OCC(=O)NCC(O)CN3CCc4ccccc4C3)cccc21 (stereo unspecified) | 0.101 to 1 µM |
| OC(COc1cccc(-c2ccncc2)c1)CN1CCc2ccccc2C1 (stereo unspecified) | 1 to 10 µM |
| CC1c2ccccc2CCN1CC(O)COc1cccc(CNC2CCCC2)c1 (stereo unspecified) | 1 to 10 µM |
| CN(CC(O)CN1CCc2ccccc2C1)c1cccc(C(=O)NC2CCOCC2)c1 (stereo unspecified) | 10 to 40 µM |
| Cn1cnc2ccc(-c3cccc(OCC(O)CN4CCc5c(Cl)cccc5C4)c3)cc21 (stereo unspecified) | 1 to 10 µM |
| Cn1cnc2ccc(-c3cccc(OCC(O)CN4CCc5ccccc5C4=O)c3)cc21 (stereo unspecified) | > 40 µM |
| O=C(Nc1cc[nH]n1)c1cccc(OCC(O)CN2CCc3ccccc3C2)c1 (stereo unspecified) | 1 to 10 µM |
| Cn1cnc2ccc(-c3cccc(OC[C@@H](O)CN4Cc5ccccc5C4)c3)cc21 | 10 to 50 µM |
| Oc1ccc(-c2cccc(OCC(O)CN3CCc4ccccc4C3)c2)cc1 (stereo unspecified) | 1 to 10 µM |
| CCOC(=O)C1c2ccccc2CCN1CC(O)COc1cccc(-c2ccc3ncn(C)c3c2)c1 (stereo unspecified) | > 40 µM |
| OC(COc1cccc(-c2cccc(Cl)c2)c1)CN1CCc2ccccc2C1 (stereo unspecified) | 1 to 10 µM |
| Cc1cccc2c1CCN(CC(O)COc1cccc(-c3ccc4ncn(C)c4c3)c1)C2 (stereo unspecified) | 1 to 10 µM |
| Cn1cnc2ccc(-c3cccc(OC[C@H](O)CN4Cc5ccccc5C4)c3)cc21 | 1 to 10 µM |
| Cn1cnc2ccc(-c3nccc(NCC(O)CN4CCc5ccccc5C4)n3)cc21 (stereo unspecified) | 1 to 10 µM |
| O=C(c1cncc(-c2cccc(OCC(O)CN3CCc4ccccc4C3)c2)c1)N1CCCC1 (stereo unspecified) | 1 to 10 µM |
| COc1ccc(Cn2cnc3ccc(-c4ccc(OCC(O)CN5Cc6ccccc6C5)cc4)cc32)cc1 (stereo unspecified) | 1 to 10 µM |
| OC(COc1cccc(-c2cncnc2)c1)CN1CCc2ccccc2C1 (stereo unspecified) | 1 to 10 µM |
| OC(COC1CCN(c2ccccc2)C1)CN1CCc2ccccc2C1 (stereo unspecified) | 1 to 10 µM |
| OC(COc1cccc(-c2cc(Cl)cc(C(F)(F)F)c2)c1)CN1CCc2ccccc2C1 (stereo unspecified) | 1 to 10 µM |

| SMILES | IC50 |
| --- | --- |
| C[C@@H](Oc1cccc2cccnc12)C(=O)NC[C@@H](O)CN1Cc2ccccc2C1 | 1 to 10 µM |
| Cn1cnc2ccc(-c3cccc(OCC(O)CN4CCc5ccccc5C4(C)C)c3)cc21 (stereo unspecified) | 1 to 10 µM |
| Nc1cccc(C(=O)NCC(O)CN2Cc3ccccc3C2)c1 (stereo unspecified) | 1 to 10 µM |
| CC(=O)N1CCC(n2cnc3ccc(-c4cccc(OCC(O)CN5CCc6ccccc6C5)c4)cc32)CC1 (stereo unspecified) | 0.101 to 1 µM |
| Cc1ccc2c(c1)CN(CC(O)COc1cccc(-c3ccc4ncn(C)c4c3)c1)CC2 (stereo unspecified) | 1 to 10 µM |
| CN(C(=O)c1cccnc1)c1cccc(OCC(O)CN2CCc3ccccc3C2)c1 (stereo unspecified) | 1 to 10 µM |
| O=C(Nc1cccc(OCC(O)CN2CCc3ccccc3C2)c1)c1cocn1 (stereo unspecified) | 1 to 10 µM |
| Cn1cnc2ccc(-c3cccc(OCC(O)CN4Cc5ccccc5C4)c3)cc21 (stereo unspecified) | 1 to 10 µM |
| OC(COc1cccc(-c2ccc(C(F)(F)F)cc2)c1)CN1CCc2ccccc2C1 (stereo unspecified) | 1 to 10 µM |
| Cn1ccc2ccc(-c3ccnc(NCC(O)CN4CCc5ccccc5C4)c3)cc21 (stereo unspecified) | < 0.1 µM |
| Cn1cncc1C(=O)Nc1cccc(OCC(O)CN2CCc3ccccc3C2)c1 (stereo unspecified) | 1 to 10 µM |
| OC(COCc1ccncc1)CN1CCc2ccccc2C1 (stereo unspecified) | 10 to 40 µM |
| Cc1cccc2c1CN(CC(O)COc1cccc(-c3ccc4ncn(C)c4c3)c1)CC2 (stereo unspecified) | 1 to 10 µM |
| O=C(Nc1cccc(OCC(O)CN2CCc3ccccc3C2)c1)c1ccnnc1 (stereo unspecified) | 1 to 10 µM |
| CN(C(=O)c1cnco1)c1cccc(OCC(O)CN2CCc3ccccc3C2)c1 (stereo unspecified) | 1 to 10 µM |
| O=C(Cn1ccc2cnc(-c3cccc(OCC(O)CN4CCc5ccccc5C4)c3)nc21)N1CCCC1 (stereo unspecified) | 0.101 to 1 µM |
| O=C(Cn1ccc2cnc(-c3cccc(OCC(O)CN4CCc5ccccc5C4)c3)nc21)N1CCCCC1 (stereo unspecified) | 0.101 to 1 µM |
| Cn1cnc2ccc(-c3cccc(OCC(O)CN4Cc5ccccc5C(F)(F)C4)c3)cc21 (stereo unspecified) | > 10 µM |
| OC(COc1cccc(-c2cccc(C(F)(F)F)c2)c1)CN1CCc2ccccc2C1 (stereo unspecified) | 1 to 10 µM |
| OC(COCc1cccnc1)CN1CCc2ccccc2C1 (stereo unspecified) | 10 to 40 µM |
| COc1cccc2c1CCN(CC(O)COc1cccc(-c3ccc4ncn(C)c4c3)c1)C2 (stereo unspecified) | 1 to 10 µM |
| C[C@H](Oc1cccc2cccnc12)C(=O)NC[C@H](O)CN1Cc2ccccc2C1 | 1 to 10 µM |
| Cn1cnc2ccc(-c3cccc(OCC(O)CN4CCc5ccccc5C4Cc4ccccc4)c3)cc21 (stereo unspecified) | > 40 µM |
| Cn1cnc2ccc(-c3cccc(OCC(O)CN4CCc5ccccc5C4COc4ccccc4)c3)cc21 (stereo unspecified) | > 40 µM |
